Experimental data published in ChEMBL document CHEMBL1151220, “Further bioactive piperidine alkaloids from the flowers and green fruits of Cassia spectabilis” (2004).
Activity calls are given as the source filed them. No cut-off for these calls is given here.

Tests used:
Format in all cases: functional
Saccharomyces cerevisiae [1] = assay: DNA damaging activity against RS 321N Saccharomyces cerevisiae
Saccharomyces cerevisiae [2] = assay: DNA damaging activity against DNA RS 322YK ([…]) Saccharomyces cerevisiae
Saccharomyces cerevisiae [3] = assay: DNA damaging activity against RS 188N (RAD+) Saccharomyces cerevisiae

Question: For `CC(=O)CCCCCCCCCCCC[C@H]1CC[C@@H](OC(C)=O)[C@@H](C)N1`, which IC12 (Saccharomyces cerevisiae [1]) is on record?
Answer: 32 µg/mL

Question: What does the source list for `CC(=O)CCCCCCCCCCCC[C@H]1CC[C@@H](O)[C@@H](CO)N1`?
Answer: Activity (Saccharomyces cerevisiae [2]): inactive; Activity (Saccharomyces cerevisiae [3]): inactive; Activity (Saccharomyces cerevisiae [1]): inactive

Question: Which IC12 (Saccharomyces cerevisiae [1]) does the source give for `COC1=C(N)C(=O)c2nc(-c3nc(C(=O)O)c(C)c(-c4ccc(OC)c(OC)c4O)c3N)ccc2C1=O` [STREPTONIGRIN] here?
Answer: 4 µg/mL

Question: With `CC(=O)CCCCCCCCCCCC[C@H]1CC[C@@H](O)[C@@H](C)N1` as the molecule, how does the IC12 (Saccharomyces cerevisiae [1]) read?
Answer: 17 µg/mL

Question: How did the Activity (Saccharomyces cerevisiae [2]) turn out when `CC(=O)CCCCCCCCCCCC[C@@H]1CC[C@@H](O)[C@@H](C)N1` was run?
Answer: inactive

Question: And the Activity (Saccharomyces cerevisiae [3])?
Answer: inactive

Question: And the Activity (Saccharomyces cerevisiae [1])?
Answer: inactive
